Several values for one entry are separate records, joined by “and”; a condition that tells them apart may be missing. Identical values can stand only once. Toxic doses and inconclusive results are not listed. The calls were made as follows: active = survival T/C of 150% or more; inactive = T/C below 125% in these data.
System: P388 leukemia ip, CD2F1 mice, survival T/C
Assay: NCI In Vivo Anticancer Drug Screen. Data for tumor model P388 Leukemia (intraperitoneal) in CD2F1 (CDF1) mice
Conditions: endpoint: median survival time, higher = longer survival
Summary of the method: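 Mice carrying the transplanted tumor received test compound or vehicle. Survival was recorded in each group, and the value is the treated-group measurement divided by that of the vehicle-treated control group.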

[1] = dose: 50.0 mg/kg/injection, schedule: Q01DX009 (ip), vehicle: saline with Tween-80
[2] = dose: 100.0 mg/kg/injection, schedule: Q01DX009 (ip), vehicle: saline with Tween-80
[3] = dose: 200.0 mg/kg/injection, schedule: Q01DX009 (ip), vehicle: saline with Tween-80
[4] = dose: 50.0 mg/kg/injection, schedule: Q01DX009 (ip), vehicle: Klucel (hydroxypropylcellulose) (HPC)
[5] = dose: 100.0 mg/kg/injection, schedule: Q01DX009 (ip), vehicle: Klucel (hydroxypropylcellulose) (HPC)
[6] = dose: 60.0 mg/kg/injection, schedule: Q01DX005 (ip), vehicle: saline with Tween-80
[7] = dose: 120.0 mg/kg/injection, schedule: Q01DX005 (ip), vehicle: saline with Tween-80

Measured: T/C

CC(=O)OCC1OC(n2ccc(=S)[nH]c2=O)C(OC(C)=O)C1OC(C)=O (stereo unspecified)
inactive: dose: 50.0 mg/kg/injection, schedule: Q04DX003 (ip), vehicle: saline with Tween-80 93 % of control | dose: 100.0 mg/kg/injection, schedule: Q04DX003 (ip), vehicle: saline with Tween-80 100 % of control | dose: 200.0 mg/kg/injection, schedule: Q04DX003 (ip), vehicle: saline with Tween-80 92 % of control | dose: 400.0 mg/kg/injection, schedule: Q04DX003 (ip), vehicle: saline with Tween-80 102 % of control

Cc1cc(Br)c(NC(=S)SCc2ccc(Cl)cc2)cc1C
inactive: dose: 50.0 mg/kg/injection, schedule: Q01DX009 (ip), vehicle: suspension in saline 101 % of control | dose: 100.0 mg/kg/injection, schedule: Q01DX009 (ip), vehicle: suspension in saline 107 % of control | dose: 200.0 mg/kg/injection, schedule: Q01DX009 (ip), vehicle: suspension in saline 98 % of control

COC(=O)C1=C(\N2CCOCC2)CCCCC/C=C\1C(=O)OC
inactive: dose: 25.0 mg/kg/injection, schedule: Q01DX009 (ip), vehicle: saline with Tween-80 99 % of control and 106 % of control | [1] 100 % of control and 103 % of control | [2] 103 % of control and 107 % of control | [3] 88 % of control and 95 % of control

CCOC(=O)C(C(=O)OCC)=C1c2c(ccc(OC)c2OC)C=C2c3cc4c(cc3CCN21)OCO4
inactive: dose: 0.63 mg/kg/injection, schedule: Q01DX009 (ip), vehicle: water 97 % of control | dose: 1.25 mg/kg/injection, schedule: Q01DX009 (ip), vehicle: water 100 % of control | dose: 2.5 mg/kg/injection, schedule: Q01DX009 (ip), vehicle: water 106 % of control | dose: 5.0 mg/kg/injection, schedule: Q01DX009 (ip), vehicle: water 117 % of control | dose: 10.0 mg/kg/injection, schedule: Q01DX009 (ip), vehicle: water 124 % of control

CCn1c(=O)c2[nH]c(Cl)nc2n(C2CC2)c1=O
inactive: [4] 99 % of control | [5] 101 % of control

CN1C(C(=O)Nc2nccs2)=C(O)c2ccccc2S1(=O)=O
inactive: [6] 105 % of control | [7] 98 % of control

CSc1nc2c(nnn2C2OCC(O)C(O)C2O)c(=O)[nH]1 (stereo unspecified)
inactive: [6] 93 % of control | [7] 93 % of control | dose: 240.0 mg/kg/injection, schedule: Q01DX005 (ip), vehicle: saline with Tween-80 86 % of control

COc1ccc2sc3c(C)ccc(NCC4CCCN5CCCCC45)c3c(=O)c2c1 (stereo unspecified)
inactive: dose: 50.0 mg/kg/injection, schedule: Q01DX005 (ip), vehicle: saline with Tween-80 95 % of control | dose: 100.0 mg/kg/injection, schedule: Q01DX005 (ip), vehicle: saline with Tween-80 90 % of control | dose: 200.0 mg/kg/injection, schedule: Q01DX005 (ip), vehicle: saline with Tween-80 90 % of control

Cc1sc(N=Nc2ccc(N(C)C)cc2)[n+]([O-])c1C
inactive: [4] 111 % of control | [5] 102 % of control | dose: 200.0 mg/kg/injection, schedule: Q01DX009 (ip), vehicle: Klucel (hydroxypropylcellulose) (HPC) 104 % of control

O=C1c2cccc([N+](=O)[O-])c2C(=O)C1c1ccccn1 (stereo unspecified)
inactive: [1] 99 % of control | [2] 87 % of control | [3] 96 % of control | dose: 400.0 mg/kg/injection, schedule: Q01DX009 (ip), vehicle: saline with Tween-80 97 % of control

COC(=O)C1CCC2C(C1)OC1(CC(OC(=O)/C=C/c3ccccc3)C(C)CO1)C21CO1 (stereo unspecified)
inactive: dose: 3.0 mg/kg/injection, schedule: Q01DX005 (ip), vehicle: saline + alcohol 100 % of control | dose: 5.0 mg/kg/injection, schedule: Q01DX009 (ip), vehicle: saline + alcohol 95 % of control | dose: 6.0 mg/kg/injection, schedule: Q01DX005 (ip), vehicle: saline + alcohol 97 % of control | dose: 10.0 mg/kg/injection, schedule: Q01DX009 (ip), vehicle: saline + alcohol 106 % of control | dose: 12.0 mg/kg/injection, schedule: Q01DX005 (ip), vehicle: saline + alcohol 97 % of control | dose: 20.0 mg/kg/injection, schedule: Q01DX009 (ip), vehicle: saline + alcohol 103 % of control | dose: 24.0 mg/kg/injection, schedule: Q01DX005 (ip), vehicle: saline + alcohol 99 % of control | dose: 40.0 mg/kg/injection, schedule: Q01DX009 (ip), vehicle: saline + alcohol 103 % of control

Reference: PubChem BioAssay AID330 (DTP/NCI, 2004)
